Measurements taken from patent US20080312171A1, “Tetracycline-Dependent Regulation of Rna Interference” (CENTRE NATIONAL DE LA RECHERCHE SCIENTIFIQUE, priority 2005, published 2008).

How the values were obtained:
Format in all cases: cell-based
[1] = test system: GFP expression in HEK 293T GFP cell clones; experiment: GFP fluorescence (FACS, microscopy) in cell clones from transduced HEK 293T GFP cells, Dox-controlled RNAi
[2] = test system: GFP expression in HEK 293T GFP cells; experiment: FACS analysis of GFP-positive cells, vector-transduced HEK 293T GFP cells with and without Dox; settings: various amounts of vector, Dox 6 μg/ml, 5 days
human p53 = experiment: Western blot analysis of p53 silencing by Dox-regulated RNAi in HEK 293T, MCF-7 and A549 cells; settings: transduced HEK 293T, Dox 6 μg/ml, 5-7 days, densitometric analysis
Method: Cells (1×10^5) were incubated overnight with indicated quantities of vector, expressed as ng of protein p24, and then cultivated in the absence and in the presence of 6 μg/ml Dox. After a 5 day (MCF-7 and A549 cells) and a 7 day cultivation (HEK 293T cells), protein was extracted from the cells and analyzed by immunoblotting.
Inventors constructed a second vector, which contained a shRNA encoding sequence designed to silence expression of human p53 as described (1). […] The expression of p53 was not reduced when non-transduced cells were incubated in the presence of Dox (6 μg/ml).
Cell extracts were prepared in lysis buffer [25 mM Tris-HCl (pH 7.5), 1% Triton X-100, 0.5% sodium deoxycholate, 5 mM EDTA, 150 mM NaCl] containing a cocktail of protease inhibitors (Roche, Meylan, France). The protein samples (30 μg) were separated on SDS-9% polyacrylamide gels and then transferred to Protan nitrocellulose membranes (Schleicher and Shuell, Dassel, Germany) in an electroblotting apparatus, using standard procedures (26). Immunodetection was performed as described in Tejedor-Real et al. (27), using a monoclonal anti-p53 antibody (BD Biosciences, Erembodegem, Belgium), a monoclonal anti-actin antibody (Chemicon, Hampshire, UK) and an anti-mouse Ig-horseradish peroxidase (HRP) conjugate (Amersham Biosciences).

## C[C@H]1c2cccc(O)c2C(=O)C2=C(O)[C@]3(O)C(=O)C(C(N)=O)=C(O)[C@@H](N(C)C)[C@@H]3[C@@H](O)[C@@H]21 [Dox, Doxycycline]
[1]; clone C1
  MFI (+Dox): 4
[1]; clone C1, MFI (−Dox) over MFI (+Dox)
  Regulation factor: 52
[1]; clone C9
  MFI (+Dox): 32
[1]; clone C9, 6 μg/ml Dox, after 5-6 days, FACS
  reduction of GFP fluorescence: 90%
[1]; clone C9, MFI (−Dox) over MFI (+Dox)
  Regulation factor: 9.7
[1]; clone C9, within 5 days
  concentration required to induce a 90% suppression of GFP: about 6 μg/ml
[1]; clone D8
  MFI (+Dox): 9
[1]; clone D8, MFI (−Dox) over MFI (+Dox)
  Regulation factor: 24
[1]; clone H6
  MFI (+Dox): 77
[1]; clone H6, MFI (−Dox) over MFI (+Dox)
  Regulation factor: 4.4
[2]
  reduction of the number of GFP-expressing cells: up to 60%
Human p53
  inhibition of the expression of p53: up to 90%
